Results published in ChEMBL document CHEMBL4818998, “Melatonin derivatives combat with inflammation-related cancer by targeting the Main Culprit STAT3” (Eur J Med Chem, 2021).
pIC50: −log10 of the molar value.

Tests used:
[1] = tested on: HCT-116; test: Antiproliferative activity against human HCT-116 cells assessed as inhibition of cell proliferation measured after 72 hrs by MTT assay; format: functional, cell-based; settings: HCT-116, 72 h
[2] = tested on: MCF7; test: Antiproliferative activity against human MCF7 cells assessed as inhibition of cell proliferation measured after 72 hrs by MTT assay; format: functional, cell-based; settings: MCF7, 72 h
[3] = tested on: HepG2; test: Antiproliferative activity against human HepG2 cells assessed as inhibition of cell proliferation measured after 72 hrs by MTT assay; format: functional, cell-based; settings: HepG2, 72 h
[4] = tested on: A549; test: Antiproliferative activity against human A549 cells assessed as inhibition of cell proliferation measured after 72 hrs by MTT assay; format: functional, cell-based; settings: A549, 72 h
[5] = tested on: MGC-803; test: Antiproliferative activity against human MGC-803 cells assessed as inhibition of cell proliferation measured after 72 hrs by MTT assay; format: functional, cell-based; settings: MGC-803, 72 h
[6] = tested on: SGC-7901; test: Antiproliferative activity against human SGC-7901 cells assessed as inhibition of cell proliferation measured after 72 hrs by MTT assay; format: functional, cell-based; settings: SGC-7901, 72 h
[7] = tested on: HGC-27; test: Antiproliferative activity against human HGC-27 cells assessed as inhibition of cell proliferation measured after 72 hrs by MTT assay; format: functional, cell-based; settings: HGC-27, 72 h
[8] = tested on: AGS; test: Antiproliferative activity against human AGS cells assessed as inhibition of cell proliferation measured after 72 hrs by MTT assay; format: functional, cell-based
[9] = tested on: HCT-116; test: Induction of apoptosis in human HCT-116 cells assessed as viable cells at 20 uM measured after 48 hrs by Annexin V-FITC/PI staining based flow cytometry (reference value: 94.9%); format: functional; settings: read-out: Activity
[10] = tested on: HCT-116; test: Induction of apoptosis in human HCT-116 cells assessed as early apoptotic cells at 20 uM measured after 48 hrs by Annexin V-FITC/PI staining based flow cytometry (reference value: 2.14%); format: functional
[11] = tested on: HCT-116; test: Induction of apoptosis in human HCT-116 cells assessed as late apoptotic cells at 20 uM measured after 48 hrs by Annexin V-FITC/PI staining based flow cytometry (reference value: 1.42%); format: functional
[12] = tested on: HCT-116; test: Induction of apoptosis in human HCT-116 cells assessed as necrotic cells at 20 uM measured after 48 hrs by Annexin V-FITC/PI staining based flow cytometry (reference value: 1.5%); format: functional

Compound `CN(c1ccccc1)c1ccccc1C(=O)NCCc1c[nH]c2ccccc12` has a pIC50 [1] of 4.76, a pIC50 [2] of 4.71 and a pIC50 [3] of 4.67. For the same compound, the pIC50 [4] was under 4.52, the pIC50 [5] was 4.96 and the pIC50 [6] was under 4.52. The pIC50 [7] was under 4.52 and the pIC50 [8] was 4.83.

`O=C(NCCc1c[nH]c2ccccc12)c1ccccc1NC1CCCCC1` gave a pIC50 [1] of under 4.52, a pIC50 [2] of under 4.52 and a pIC50 [3] of 4.54. The pIC50 [4] was under 4.52, the pIC50 [5] was under 4.52 and the pIC50 [6] was under 4.52. For the same compound, the pIC50 [7] was 4.57 and the pIC50 [8] was under 4.52.

`COc1ccc2[nH]cc(CCNC(=O)c3ccccc3Nc3cccc(Cl)c3C)c2c1` showed a pIC50 [1] of 4.69, a pIC50 [2] of 4.60 and a pIC50 [3] of 4.66. For the same compound, the pIC50 [4] was 4.75, the pIC50 [5] was 5.01 and the pIC50 [6] was 4.55. It also gave a pIC50 [7] of 4.70 and a pIC50 [8] of 4.80.

In the case of `O=C(NCCc1c[nH]c2ccccc12)c1ccccc1NCCCCO`, the pIC50 [1] was under 4.52, the pIC50 [2] was under 4.52 and the pIC50 [3] was under 4.52. It also gave a pIC50 [4] of under 4.52, a pIC50 [5] of under 4.52 and a pIC50 [6] of under 4.52. For the same compound, the pIC50 [7] was under 4.52 and the pIC50 [8] was under 4.52.

For `COc1ccc2[nH]cc(CCNC(=O)c3ccccc3Nc3ccccc3)c2c1`, the pIC50 [1] was 4.61, the pIC50 [2] was 4.54 and the pIC50 [3] was under 4.52. The pIC50 [4] was under 4.52, the pIC50 [5] was 4.89 and the pIC50 [6] was under 4.52. It also gave a pIC50 [7] of under 4.52 and a pIC50 [8] of under 4.52.

`Cc1cccc(Nc2ccccc2C(=O)NCCc2c[nH]c3ccccc23)c1C` gave a pIC50 [1] of 4.84, a pIC50 [2] of under 4.52 and a pIC50 [3] of 4.66. The pIC50 [4] was under 4.52, the pIC50 [5] was under 4.52 and the pIC50 [6] was under 4.52. For the same compound, the pIC50 [7] was under 4.52 and the pIC50 [8] was 4.78.

With `CNc1ccccc1C(=O)NCCc1c[nH]c2ccccc12` the pIC50 [1] was under 4.52, the pIC50 [2] was under 4.52 and the pIC50 [3] was under 4.52. For the same compound, the pIC50 [4] was under 4.52, the pIC50 [5] was under 4.52 and the pIC50 [6] was under 4.52. The pIC50 [7] was under 4.52 and the pIC50 [8] was under 4.52.

`COc1ccc(CCNc2ccccc2C(=O)NCCc2c[nH]c3ccccc23)cc1OC` showed a pIC50 [1] of under 4.52, a pIC50 [2] of under 4.52 and a pIC50 [3] of under 4.52. The pIC50 [4] was under 4.52, the pIC50 [5] was under 4.52 and the pIC50 [6] was under 4.52. For the same compound, the pIC50 [7] was under 4.52 and the pIC50 [8] was under 4.52.

Compound `O=C(NCCc1c[nH]c2ccccc12)c1ccccc1NC1CC1` has a pIC50 [1] of under 4.52, a pIC50 [2] of under 4.52 and a pIC50 [3] of 4.55. For the same compound, the pIC50 [4] was under 4.52, the pIC50 [5] was under 4.52 and the pIC50 [6] was under 4.52. The pIC50 [7] was 4.55 and the pIC50 [8] was under 4.52.

For `CN(C)c1ccccc1C(=O)NCCc1c[nH]c2ccccc12`, the pIC50 [1] was 4.78, the pIC50 [2] was under 4.52 and the pIC50 [3] was under 4.52. It also gave a pIC50 [4] of under 4.52, a pIC50 [5] of under 4.52 and a pIC50 [6] of under 4.52. The pIC50 [7] was under 4.52 and the pIC50 [8] was 4.65.

`Cc1cccc(Nc2ccccc2C(=O)NCCc2c[nH]c3ccc(O)cc23)c1C` was tested, and the pIC50 [1] was 4.65, the pIC50 [2] was 4.60 and the pIC50 [3] was 4.77. The pIC50 [4] was under 4.52, the pIC50 [5] was 4.78 and the pIC50 [6] was under 4.52. For the same compound, the pIC50 [7] was 4.57 and the pIC50 [8] was 5.05.

`O=c1[nH]cc(F)c(=O)[nH]1` [FLUOROURACIL] gave a pIC50 [1] of 5.21, a pIC50 [2] of 4.88 and a pIC50 [3] of under 4.52. The pIC50 [4] was under 4.52, the pIC50 [5] was 4.54 and the pIC50 [6] was under 4.52. The pIC50 [7] was under 4.52, the pIC50 [8] was 4.96 and the viability at 20 µM [9] was 81.3%. For the same compound, the Activity [10] was 5.54%, the Activity [11] was 10.4% and the Activity [12] was 2.69%.

For `Cc1ccc(S(=O)(=O)Nc2ccccc2C(=O)NCCc2c[nH]c3ccccc23)cc1`, the pIC50 [1] was under 4.52, the pIC50 [2] was under 4.52 and the pIC50 [3] was under 4.52. It also gave a pIC50 [4] of under 4.52, a pIC50 [5] of under 4.52 and a pIC50 [6] of under 4.52. For the same compound, the pIC50 [7] was under 4.52 and the pIC50 [8] was under 4.52.

`O=C(NCCc1c[nH]c2ccccc12)c1ccccc1NC1CCCC1` was tested, and the pIC50 [1] was under 4.52, the pIC50 [2] was under 4.52 and the pIC50 [3] was 4.54. It also gave a pIC50 [4] of under 4.52, a pIC50 [5] of under 4.52 and a pIC50 [6] of under 4.52. It also gave a pIC50 [7] of 4.72 and a pIC50 [8] of under 4.52.

With `O=C(NCCc1c[nH]c2ccccc12)c1ccccc1NCc1ccccc1` the pIC50 [1] was under 4.52, the pIC50 [2] was under 4.52 and the pIC50 [3] was under 4.52. It also gave a pIC50 [4] of under 4.52, a pIC50 [5] of under 4.52 and a pIC50 [6] of under 4.52. For the same compound, the pIC50 [7] was 4.70 and the pIC50 [8] was under 4.52.

`COc1ccc2[nH]cc(CCNC(C)=O)c2c1` [MELATONIN] gave a pIC50 [1] of under 4.52, a pIC50 [2] of under 4.52 and a pIC50 [3] of under 4.52. It also gave a pIC50 [4] of under 4.52, a pIC50 [5] of under 4.52 and a pIC50 [6] of under 4.52. For the same compound, the pIC50 [7] was under 4.52 and the pIC50 [8] was under 4.52.
